# Active and inactive are the calls of the source.
# Experiments:
# [1] = molecular target: T1, Ubiquitin-conjugating enzyme E2 N (Homo sapiens, UniProt P61088); assay type: functional
# T1 sequence (P61088 whole entry): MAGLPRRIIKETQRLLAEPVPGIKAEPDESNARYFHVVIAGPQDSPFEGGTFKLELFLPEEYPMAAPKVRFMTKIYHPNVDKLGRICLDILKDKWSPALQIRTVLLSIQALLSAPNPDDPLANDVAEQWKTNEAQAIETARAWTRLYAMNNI
# [2] = molecular target: T1, Ubiquitin-conjugating enzyme E2 N; assay type: functional; remark: listed apart in the source
# [3] = molecular target: T2, Endoribonuclease toxin MazF (Escherichia coli K-12, UniProt P0AE70); test: fluorescent RNA oligo signal without MazF, dose response, counter-screen for MazEF activator project, biochemical, fluorescence, single-stranded RNase substrate (AID 588502); assay type: functional
# T2 sequence (P0AE70 whole entry): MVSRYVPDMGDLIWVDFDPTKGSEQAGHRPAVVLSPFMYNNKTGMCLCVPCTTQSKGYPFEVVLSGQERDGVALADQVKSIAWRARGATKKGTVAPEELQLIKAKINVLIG
# Bcl-2-related protein A1 = molecular target: T3, Bcl-2-related protein A1 (Mus musculus, UniProt Q07440); assay type: functional;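 also: confirmatory dose–response counterscreen on Bfl-1, used to check hits from a UBC13 polyubiquitin inhibitor campaign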
# T3 sequence (Q07440 whole entry): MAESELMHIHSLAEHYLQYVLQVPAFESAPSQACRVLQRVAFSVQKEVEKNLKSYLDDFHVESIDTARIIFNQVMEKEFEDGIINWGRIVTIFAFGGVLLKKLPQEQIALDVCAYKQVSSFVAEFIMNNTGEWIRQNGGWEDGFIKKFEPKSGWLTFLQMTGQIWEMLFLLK
# [4] = molecular target: T2, Endoribonuclease toxin MazF; test: MazF toxin RNase activators, dose response, biochemical, fluorescence, single-stranded RNA substrate, uHTS hits (AID 588481); assay type: functional
# [5] = molecular target: T4, Probable nicotinate-nucleotide adenylyltransferase (Staphylococcus aureus (strain N315), UniProt P65502); assay type: functional, Staphylococcus aureus subsp. aureus N315;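 as to IC50 Mean: confirmatory dose-response retesting of NadD inhibitor hits first found in an ultra-high-throughput screen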
# [6] = molecular target: T4, Probable nicotinate-nucleotide adenylyltransferase; assay type: functional, Staphylococcus aureus subsp. aureus N315; conditions: read-out: IC50_Mean
# [7] = molecular target: 26S proteasome non-ATPase regulatory subunit 14 (Homo sapiens, UniProt O00487); test: inhibition of proteasome subunit RPN11 – biochemical, fluorescence polarization, uHTS hits, confirmation (AID 602368); assay type: functional
# [8] = molecular target: T5, Carboxy-terminal domain RNA polymerase II polypeptide A small phosphatase 1 (Homo sapiens, UniProt Q9GZU7); test: inhibitors of CTDSP1, concentration-response testing, biochemical assay, absorbance-based, actives from ultra-high-throughput screening (AID 540297); assay type: functional
# T5 sequence (Q9GZU7 whole entry): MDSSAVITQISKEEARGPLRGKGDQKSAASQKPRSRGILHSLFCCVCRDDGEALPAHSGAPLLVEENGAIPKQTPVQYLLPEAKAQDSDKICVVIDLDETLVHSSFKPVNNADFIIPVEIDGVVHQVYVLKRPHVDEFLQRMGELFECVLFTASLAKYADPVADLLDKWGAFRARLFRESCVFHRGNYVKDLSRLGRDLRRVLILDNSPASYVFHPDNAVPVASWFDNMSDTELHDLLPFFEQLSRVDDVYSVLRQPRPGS
# [9] = molecular target: T6, Low molecular weight phosphotyrosine protein phosphatase (Homo sapiens, UniProt P24666); assay type: functional; conditions: read-out: IC50_Mean
# T6 sequence (P24666 whole entry): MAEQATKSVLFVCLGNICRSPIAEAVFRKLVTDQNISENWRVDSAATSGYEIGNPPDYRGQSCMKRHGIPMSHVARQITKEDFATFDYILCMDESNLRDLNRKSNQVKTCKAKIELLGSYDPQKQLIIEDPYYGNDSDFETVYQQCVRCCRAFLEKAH
# [10] = molecular target: 72 kDa type IV collagenase (Homo sapiens, UniProt P08253); test: Dose Response validation of uHTS RPN11 inhibitor hits using a MMP-2 Fluorescence assay.; assay type: functional
# [11] = molecular target: T6, Low molecular weight phosphotyrosine protein phosphatase; assay type: functional; conditions: read-out: IC50_Mean; remark: listed apart in the source
# Prothrombin = Prothrombin (Bos taurus, UniProt P00735); test: thrombin inhibition, dose response, biochemical, fluorescence polarization, uHTS hits (AID 602369); assay type: functional
# T4 sequence (P65502 whole entry): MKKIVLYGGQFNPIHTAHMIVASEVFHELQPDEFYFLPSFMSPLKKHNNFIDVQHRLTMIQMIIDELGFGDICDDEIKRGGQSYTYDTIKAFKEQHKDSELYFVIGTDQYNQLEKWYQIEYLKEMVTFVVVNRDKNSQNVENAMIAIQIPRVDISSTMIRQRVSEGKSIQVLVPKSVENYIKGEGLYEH
# Chain of 26S proteasome non-ATPase regulatory subunit 14 (O00487 whole entry, the tested form may be a part): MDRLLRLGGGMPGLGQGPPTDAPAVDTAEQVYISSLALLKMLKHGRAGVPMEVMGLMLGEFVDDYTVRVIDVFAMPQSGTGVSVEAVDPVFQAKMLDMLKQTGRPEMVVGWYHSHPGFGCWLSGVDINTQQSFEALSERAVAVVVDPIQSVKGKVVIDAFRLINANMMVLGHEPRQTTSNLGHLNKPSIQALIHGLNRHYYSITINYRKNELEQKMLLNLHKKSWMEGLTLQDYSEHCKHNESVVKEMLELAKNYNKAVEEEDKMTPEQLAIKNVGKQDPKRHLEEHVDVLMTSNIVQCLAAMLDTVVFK
# Chain of 72 kDa type IV collagenase (P08253 whole entry): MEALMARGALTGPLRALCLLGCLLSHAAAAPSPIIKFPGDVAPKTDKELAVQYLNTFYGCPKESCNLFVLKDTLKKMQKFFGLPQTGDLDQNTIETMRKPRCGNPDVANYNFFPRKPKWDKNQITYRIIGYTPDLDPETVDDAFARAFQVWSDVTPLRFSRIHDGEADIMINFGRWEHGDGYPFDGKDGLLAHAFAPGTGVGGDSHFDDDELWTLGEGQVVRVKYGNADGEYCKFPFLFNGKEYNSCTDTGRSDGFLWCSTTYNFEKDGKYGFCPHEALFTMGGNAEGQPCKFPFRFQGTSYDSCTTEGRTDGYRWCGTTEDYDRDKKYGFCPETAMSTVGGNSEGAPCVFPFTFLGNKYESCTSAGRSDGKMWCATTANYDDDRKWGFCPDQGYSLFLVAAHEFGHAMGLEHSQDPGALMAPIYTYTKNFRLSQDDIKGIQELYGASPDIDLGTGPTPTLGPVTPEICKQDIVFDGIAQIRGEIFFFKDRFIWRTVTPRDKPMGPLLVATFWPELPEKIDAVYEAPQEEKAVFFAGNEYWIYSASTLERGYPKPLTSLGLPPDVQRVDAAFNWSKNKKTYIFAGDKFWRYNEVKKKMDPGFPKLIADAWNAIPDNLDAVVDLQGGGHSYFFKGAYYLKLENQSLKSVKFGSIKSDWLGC
smiles,measurement,setting,value
COc1cc(C2C(C#N)=C(N)Oc3[nH]nc(-c4cccs4)c32)cc(OC)c1O (stereo not drawn),IC50,[1],1.47 µM (active)
same,IC50,[2],3.38 µM (active)
same,EC50,[3],13.3 µM (active)
same,IC50,Bcl-2-related protein A1,> 20 µM (inactive)
same,EC50,[4],> 99 µM (inactive)
COc1ccccc1-n1c(SCc2cc(=O)oc3cc(O)ccc23)nc2ccccc2c1=O,IC50,[5],15.2 µM (active)
same,IC50,[6],40.2 µM (active)
O=c1c(Cl)c(N/N=C/c2ccc(Br)cc2)cnn1-c1ccccc1,IC50,[7],21.2 µM (active)
same,IC50,[8],> 80 µM (inactive)
same,IC50,[9],> 80 µM (inactive)
same,IC50,[10],> 100 µM (inactive)
same,IC50,[11],21.6 µM (inactive)
same,IC50,Prothrombin,> 100 µM (inactive)
